Measurements: ChEMBL document CHEMBL1154161, “Synthesis, kinetic studies and pharmacological evaluation of mutual azo prodrugs of 5-aminosalicylic acid for colon-specific drug delivery in inflammatory bowel disease” (Eur J Med Chem, 2009)
Activity calls are given as the source filed them. The rule behind the calls is not given here.

Tests used:
[1] = tested on: Rattus norvegicus; assay: Gastrointestinal toxicity in Wistar rat assessed as ulcer index at 1154.3 mg/kg, po by Rainsford's cold stress method; assay type: organism-based; parameters: dose 1154.3 mg/kg, route oral; conditions: in vivo
[2] = tested on: Rattus norvegicus; assay: Antiarthritic activity against Freund's adjuvant-induced arthritis in Wistar rat assessed as reduction in paw volume administered 13 days after Freund's adjuvant challenge measured on day 21; assay type: functional; parameters: concentration or dose not given beside the values
[3] = tested on: Rattus norvegicus; assay: Gastrointestinal toxicity in Wistar rat assessed as ulcer index at 3647.7 mg/kg, po by Rainsford's cold stress method; assay type: organism-based; parameters: dose 3647.7 mg/kg, route oral; conditions: in vivo
[4] = tested on: Rattus norvegicus; assay: Antiinflammatory activity against trinitrobenzenesulfonic acid-induced colitis in Wistar rat assessed as decrease in colon to body weight ratio at 100 mg/kg, po measured 24 hrs after last dose on day 11; assay type: functional, organism-based; parameters: dose 100 mg/kg
[5] = tested on: Rattus norvegicus; assay: Antiinflammatory activity against trinitrobenzenesulfonic acid-induced colitis in Wistar rat at 100 mg/kg, administered rectally; assay type: functional, organism-based; parameters: dose 100 mg/kg
[6] = tested on: Rattus norvegicus; assay: Antiinflammatory activity against trinitrobenzenesulfonic acid-induced colitis in Wistar rat assessed as decrease in colonic myeloperoxidase activity at 100 mg/kg, po measured 24 hrs after last dose on day 11 by spectrometry; assay type: functional, organism-based; parameters: dose 100 mg/kg
[7] = Aqueous solubility of the compound; assay type: physicochemical; conditions: aqueous medium
[8] = Partition coefficient, log P in n-octanol/phosphate buffer of pH 7.4; assay type: physicochemical
[9] = Stability in 0.05 M hydrochloric acid buffer of pH 1.2; assay type: physicochemical
[10] = Stability in rat feces assessed as half life at 250 ug/mL by UV spectrophotometry in presence of azo reductase; assay type: ADME, tissue-based
[11] = Stability in rat feces assessed as cumulated 5-aminosalicylic acid release measured for 6 to 7 hrs by UV spectrophotometry in presence of azo reductase; assay type: ADME, tissue-based
[12] = tested on: Rattus norvegicus; assay: Antiinflammatory activity against trinitrobenzenesulfonic acid-induced colitis in Wistar rat assessed as decrease in appearance of mucosal abscess at 100 mg/kg administered rectally measured 24 hrs after last dose on day 11 by haematoxylin/eosin staining; assay type: functional, organism-based; parameters: dose 100 mg/kg
[13] = tested on: Rattus norvegicus; assay: Antiinflammatory activity against trinitrobenzenesulfonic acid-induced colitis in Wistar rat assessed as decrease in inflammatory cell infiltration at 100 mg/kg administered rectally measured 24 hrs after last dose on day 11 by haematoxylin/eosin staining in presence of sulfasalazine; assay type: functional, organism-based; parameters: dose 100 mg/kg
[14] = tested on: Rattus norvegicus; assay: Antiinflammatory activity against trinitrobenzenesulfonic acid-induced colitis in Wistar rat assessed as decrease in appearance of mucosal abscess at 100 mg/kg administered rectally measured 24 hrs after last dose on day 11 by haematoxylin/eosin staining in presence of sulfasalazine; assay type: functional, organism-based; parameters: dose 100 mg/kg
[15] = tested on: Rattus norvegicus; assay: Antiinflammatory activity against trinitrobenzenesulfonic acid-induced colitis in Wistar rat at 100 mg/kg, po; assay type: functional, organism-based; parameters: dose 100 mg/kg
[16] = tested on: Rattus norvegicus; assay: Antiinflammatory activity against trinitrobenzenesulfonic acid-induced colitis in Wistar rat at 100 mg/kg, administered rectally in presence of 5-aminosalicylic acid; assay type: functional, organism-based; parameters: dose 100 mg/kg
[17] = tested on: Rattus norvegicus; assay: Antiinflammatory activity against trinitrobenzenesulfonic acid-induced colitis in Wistar rat assessed as decrease in inflammatory cell infiltration at 100 mg/kg, po measured 24 hrs after last dose on day 11 by haematoxylin/eosin staining; assay type: functional, organism-based; parameters: dose 100 mg/kg
[18] = tested on: Rattus norvegicus; assay: Antiinflammatory activity against trinitrobenzenesulfonic acid-induced colitis in Wistar rat assessed as decrease in appearance of mucosal abscess at 100 mg/kg, po measured 24 hrs after last dose on day 11 by haematoxylin/eosin staining; assay type: functional, organism-based; parameters: dose 100 mg/kg
[19] = tested on: Rattus norvegicus; assay: Antiinflammatory activity against trinitrobenzenesulfonic acid-induced colitis in Wistar rat assessed as decrease in inflammatory cell infiltration at 100 mg/kg administered rectallysmeasured 24 hrs after last dose on day 11 by haematoxylin/eosin staining; assay type: functional, organism-based; parameters: dose 100 mg/kg
[20] = tested on: Rattus norvegicus; assay: Gastrointestinal toxicity in Wistar rat assessed as ulcer index at 3050 mg/kg, po by Rainsford's cold stress method; assay type: organism-based; parameters: dose 3050 mg/kg, route oral; conditions: in vivo
[21] = Stability in phosphate buffer of pH 7.4 assessed as drug release after 7 hrs; assay type: physicochemical; conditions: pH 7.4, 7 h
[22] = tested on: Rattus norvegicus; assay: Gastrointestinal toxicity in Wistar rat assessed as ulcer index at 3000 mg/kg, po by Rainsford's cold stress method; assay type: organism-based; parameters: dose 3000 mg/kg, route oral; conditions: in vivo
[23] = tested on: Rattus norvegicus; assay: Gastrointestinal toxicity in Wistar rat assessed as ulcer index at 2829 mg/kg, po by Rainsford's cold stress method; assay type: organism-based; parameters: dose 2829 mg/kg, route oral; conditions: in vivo

SMILES	Activity [2] [%]	Activity [4]	Activity [5]	Activity [6]	solubility [7] [mg/mL]	logD [8]	Stability [9]	half-life at 250 ug/mL [10] [h]	Activity [11] [%]	Activity [12]	Activity [13]	Activity [16]	Activity [18]	further results
Nc1ccc(O)c(C(=O)O)c1 [MESALAMINE]	47	–	–	–	–	–	–	–	–	–	–	–	–	UI [1]: 60.03
O=C([O-])c1cc(/N=N/[C@@H](Cc2ccc(O)cc2)C(=O)[O-])ccc1O.[Na+].[Na+]	62	Active	Active	Active	260	0.35	Stable	2.33	87	–	–	–	–	UI [3]: 10.76
N[C@@H](Cc1c[nH]c2ccccc12)C(=O)O	–	–	–	–	–	–	–	–	–	Active	Active	Active	Active	Activity [14]: Active; Activity [15]: Active; Activity [17]: Active; Activity [19]: Active
O=C([O-])c1cc(/N=N/[C@H](Cc2ccccc2)C(=O)[O-])ccc1O.[Na+].[Na+]	62	Active	Active	Active	250	0.3	Stable	2.67	85	–	–	–	–	UI [20]: 11.3; Activity [21]: 15%
Nc1ccc(C(=O)O)c(O)c1 [AMINOSALICYLIC ACID]	–	–	–	–	–	–	–	–	–	–	–	–	–	UI [1]: 69.61
N[C@@H](Cc1ccc(O)cc1)C(=O)O	–	–	–	–	–	–	–	–	–	Active	Active	Active	inactive	Activity [15]: inactive; Activity [17]: inactive
N[C@H](Cc1ccccc1)C(=O)O	–	–	Active	–	–	–	–	–	–	Active	Active	Active	Active	Activity [14]: Active; Activity [19]: Active
O=C(O)c1cc(/N=N/c2ccc(S(=O)(=O)Nc3ccccn3)cc2)ccc1O [SULFASALAZINE]	73	Active	Active	Active	–	–	–	–	–	–	–	–	–	UI [22]: 9
O=C([O-])c1cc(/N=N/[C@@H](Cc2c[nH]c3ccccc23)C(=O)[O-])ccc1O.[Na+].[Na+]	62	Active	Active	Active	280	0.26	Stable	2.4	88	–	–	–	–	UI [23]: 13; Activity [21]: 15%
